Literature values in PubChem BioAssay AID1259409 (Chemical Carcinogenesis Research Information System (CCRIS), 2018).

Tested on: rodent chemically induced tumor inhibition, incidence and multiplicity
Assay: CCRIS tumor inhibitor studies

SMILES: Oc1ccc(C2=Cc3ccc(O)cc3OC2)cc1
- tumour outcome (control, treated, inhibition, significance) (Carcinogen: 7,12-DIMETHYLBENZ[A]ANTHRACENE, 57-97-6, Dose [Inhibitor]: 0, 50 MG/KG IN DIET FOR 117 D (STUDY DURATION: 117 D), Route [Inhibitor]: ORAL, Species: RAT, Strain/Sex: SPRAGUE-DAWLEY/FEMALE, Target Tissue: Type of Lesion: MAMMARY GLAND: TUMOR, Dose [Carcinogen]: 15 MG IN SESAME OIL, ONCE, 7 D AFTER FIRST INHIBITOR DOSE): 15/16 (94.7%), 12/18 (65%), 31.4%, p< 0.05
- tumour outcome (control, treated, inhibition, significance) (Carcinogen: 7,12-DIMETHYLBENZ[A]ANTHRACENE, 57-97-6, Dose [Inhibitor]: 0, 75 MG/KG IN DIET FOR 117 D (STUDY DURATION: 117 D), Route [Inhibitor]: ORAL, Species: RAT, Strain/Sex: SPRAGUE-DAWLEY/FEMALE, Target Tissue: Type of Lesion: MAMMARY GLAND: TUMOR, Dose [Carcinogen]: 15 MG IN SESAME OIL, ONCE, 7 D AFTER FIRST INHIBITOR DOSE): 15/16 (94.7%), 12/17 (70%), 26.1%, p< 0.05

SMILES: CCOC(=S)S
- tumour outcome (control, treated, inhibition, significance) (Carcinogen: N-NITROSO-DIETHYLAMINE, 55-18-5, Dose [Inhibitor]: 12.5 MG/KG IN DRINKING WATER ADMINISTERED SIMULTANEOUSLY WITH CARCINOGEN (STUDY DURATION: 28 WK), Route [Inhibitor]: ORAL, Species: RAT, Strain/Sex: BD6/MALE, Target Tissue: Type of Lesion: LIVER: TUMOR, Dose [Carcinogen]: 80 MG/KG 1/WK FOR 10 WK, Promoter: NONE USED): 12/14 (86%), 10/14 (71%), 16%, p>0.05
- tumour outcome (control, treated, inhibition, significance) (Carcinogen: N-NITROSO-DIETHYLAMINE, 55-18-5, Dose [Inhibitor]: 25 MG/KG IN DRINKING WATER PLUS 100 MG/KG 1 HR BEFORE CARCINOGEN ADMINISTERED SIMULTANEOUSLY WITH CARCINOGEN (STUDY DURA, Route [Inhibitor]: ORAL, Species: RAT, Strain/Sex: BD6/MALE, Target Tissue: Type of Lesion: LIVER: TUMOR, Dose [Carcinogen]: 80 MG/KG 1/WK FOR 10 WK, Promoter: NONE USED): 12/14 (86%), 6/12 (50%), 42%, p<0.05

SMILES: Cc1ncc(C[n+]2csc(CCO)c2C)c(N)n1
- tumour outcome (control, treated, inhibition, significance) (Carcinogen: 7,12-DIMETHYLBENZ[A]ANTHRACENE, 57-97-6, Dose [Inhibitor]: 0.2% IN DRINKING WATER DAILY STARTING 4 WK BEFORE CARCINOGEN TREATMENT AND CONTINUING FOR DURATION OF STUDY (STUDY DURAT, Route [Inhibitor]: ORAL, Species: MOUSE, Strain/Sex: 101/MALE, FEMALE, Target Tissue: Type of Lesion: SKIN: PAPILLOMA, Dose [Carcinogen]: 225 UG IN 0.15 ML ACETONE ONCE, Promoter: CROTON OIL, 8001-28-3): 17/19 (89%), 18/20 (90%), -1%, not calculated
- tumour outcome (control, treated, inhibition, significance) (Carcinogen: BENZO[A]PYRENE, 50-32-8, Dose [Inhibitor]: 2.5 MG 2/WK FOR 20 WK STARTING 4 WK BEFORE START OF CARCINOGEN TREATMENT PLUS 0.2% IN DRINKING WATER (STUDY DURATION: 22, Route [Inhibitor]: SUBCUTANEOUS, ORAL, Species: MOUSE, Strain/Sex: 101/MALE, FEMALE, Target Tissue: Type of Lesion: SKIN: PAPILLOMA, Dose [Carcinogen]: 0.2 ML OF 0.25% 2/WK FOR 20 WK, Promoter: NONE USED): 13/18 (72%), 5/8 (63%), 13%, not calculated
- tumour outcome (control, treated, inhibition, significance) (Carcinogen: BENZO[A]PYRENE, 50-32-8, Dose [Inhibitor]: 2.5 MG 2/WK FOR 20 WK STARTING 4 WK BEFORE START OF CARCINOGEN TREATMENT PLUS 0.2% IN DRINKING WATER (STUDY DURATION: 37, Route [Inhibitor]: SUBCUTANEOUS, ORAL, Species: MOUSE, Strain/Sex: 101/MALE, FEMALE, Target Tissue: Type of Lesion: SKIN: MALIGNANT TUMOR, Dose [Carcinogen]: 0.2 ML OF 0.25% 2/WK FOR 20 WK, Promoter: NONE USED): 12/18 (67%), 5/8 (63%), 6%, not calculated
- tumour outcome (control, treated, inhibition, significance) (Carcinogen: ETHYLNITROSOUREA, 759-73-9, Dose [Inhibitor]: 0, 500 MG/KG MIXED WITH STARCH 1:20 (WEIGHT: WEIGHT) IN DIET 5 D/WK FOR 10 MO (STUDY DURATION: 10 MO), Route [Inhibitor]: ORAL, Species: RAT, Strain/Sex: ALBINO/MALE,FEMALE, Target Tissue: Type of Lesion: BRAIN: GLIOMA OR ASTROCYTOMA, Dose [Carcinogen]: 75 MG/KG IN SALINE BY INTRAVENOUS INJECTION ONCE 21 D AFTER CONCEPTION): 21/40 (52%), 14/20 (70%), -35%, not calculated
- tumour outcome (control, treated, inhibition, significance) (Carcinogen: ETHYLNITROSOUREA, 759-73-9, Dose [Inhibitor]: 0, 500 MG/KG MIXED WITH STARCH 1:20 (WEIGHT: WEIGHT) IN DIET 5 D/WK FOR 10 MO (STUDY DURATION: 10 MO), Route [Inhibitor]: ORAL, Species: RAT, Strain/Sex: ALBINO/MALE,FEMALE, Target Tissue: Type of Lesion: KIDNEY: MESENCHYMAL TUMOR OR ADENOCARCINOMA, Dose [Carcinogen]: 75 MG/KG IN SALINE BY INTRAVENOUS INJECTION ONCE 21 D AFTER CONCEPTION): 11/40 (28%), 10/20 (50%), -79%, not calculated
- tumour outcome (control, treated, inhibition, significance) (Carcinogen: ETHYLNITROSOUREA, 759-73-9, Dose [Inhibitor]: 0, 500 MG/KG MIXED WITH STARCH 1:20 (WEIGHT: WEIGHT) IN DIET 5 D/WK FOR 10 MO (STUDY DURATION: 10 MO), Route [Inhibitor]: ORAL, Species: RAT, Strain/Sex: ALBINO/MALE,FEMALE, Target Tissue: Type of Lesion: NERVOUS SYSTEM: SCHWANNOMA, Dose [Carcinogen]: 75 MG/KG IN SALINE BY INTRAVENOUS INJECTION ONCE 21 D AFTER CONCEPTION): 19/40 (48%), 5/20 (25%), 48%, not calculated
- tumour outcome (control, treated, inhibition, significance) (Carcinogen: ETHYLNITROSOUREA, 759-73-9, Dose [Inhibitor]: 0, 500 MG/KG MIXED WITH STARCH 1:20 (WEIGHT: WEIGHT) IN DIET 5 D/WK FOR 10 MO (STUDY DURATION: 10 MO), Route [Inhibitor]: ORAL, Species: RAT, Strain/Sex: ALBINO/MALE,FEMALE, Target Tissue: Type of Lesion: SPINAL CORD: TUMOR, Dose [Carcinogen]: 75 MG/KG IN SALINE BY INTRAVENOUS INJECTION ONCE 21 D AFTER CONCEPTION): 17/40 (42%), 4/20 (20%), 52%, not calculated

SMILES: CCOC(=O)/C=C(C)/C=C/C=C(C)/C=C/c1c(C)cc(OC)c(C)c1C
- tumour outcome (control, treated, inhibition, significance) (Carcinogen: 7,12-DIMETHYLBENZ[A]ANTHRACENE, 57-97-6, Dose [Inhibitor]: 140 NMOL IN 0.2 ML ACETONE 2/WK (D 1 AND D 4 OF EACH WK) 1 HR BEFORE EACH PROMOTER APPLICATION STARTING 14 D AFTER CARCI, Route [Inhibitor]: DERMAL, Species: MOUSE, Strain/Sex: CD-1/FEMALE, Target Tissue: Type of Lesion: SKIN: PAPILLOMA, Dose [Carcinogen]: 0.2 UMOL IN 0.2 ML ACETONE ONCE, Promoter: 12-O-TETRADECANOYLPHORBOL-13-ACETATE, 16561-29-8): 90%, 38%, 58%, not calculated
- tumour outcome (control, treated, inhibition, significance) (Carcinogen: TRANS-5-AMINO-3-[2-(5-NITRO-2-FURYL)VINYL]-1,2,4-OXADIAZOLE;SQL8506, 28754-68-9, Carcinogen: TRANS-5-AMINO-3-[2-(5-NITRO-2-FURYL)VINYL]-1,2,4-OXADIAZOLE;SQL8506, 28754-68-9, Dose [Inhibitor]: 75 MG/KG 18 HR BEFORE THE 1ST DOSE OF EACH CARCINOGEN TREATMENT (STUDY DURATION: LIFETIME), Route [Inhibitor]: ORAL, Species: MOUSE, Strain/Sex: CD-1/FEMALE, Target Tissue: Type of Lesion: HEMATOPOIETIC SYSTEM: MYELOID LEUKEMIA, Dose [Carcinogen]: 1 G/KG 2/D FOR 5 D EVERY 4 WK FOR 3 COURSES OF TREATMENT, Promoter: NONE USED): 7/137 (5%), 0/44 (0%), 100%, not calculated
- tumour outcome (control, treated, inhibition, significance) (Carcinogen: TRANS-5-AMINO-3-[2-(5-NITRO-2-FURYL)VINYL]-1,2,4-OXADIAZOLE;SQL8506, 28754-68-9, Carcinogen: TRANS-5-AMINO-3-[2-(5-NITRO-2-FURYL)VINYL]-1,2,4-OXADIAZOLE;SQL8506, 28754-68-9, Dose [Inhibitor]: 75 MG/KG 18 HR BEFORE THE 1ST DOSE OF EACH CARCINOGEN TREATMENT (STUDY DURATION: LIFETIME), Route [Inhibitor]: ORAL, Species: MOUSE, Strain/Sex: CD-1/FEMALE, Target Tissue: Type of Lesion: LYMPHOID TISSUE: NONTHYMIC LYMPHOMA, Dose [Carcinogen]: 1 G/KG 2/D FOR 5 D EVERY 4 WK FOR 3 COURSES OF TREATMENT, Promoter: NONE USED): 8/137 (6%), 6/44 (14%), -133%, not calculated
- tumour outcome (control, treated, inhibition, significance) (Carcinogen: TRANS-5-AMINO-3-[2-(5-NITRO-2-FURYL)VINYL]-1,2,4-OXADIAZOLE;SQL8506, 28754-68-9, Carcinogen: TRANS-5-AMINO-3-[2-(5-NITRO-2-FURYL)VINYL]-1,2,4-OXADIAZOLE;SQL8506, 28754-68-9, Dose [Inhibitor]: 75 MG/KG 18 HR BEFORE THE 1ST DOSE OF EACH CARCINOGEN TREATMENT (STUDY DURATION: LIFETIME), Route [Inhibitor]: ORAL, Species: MOUSE, Strain/Sex: CD-1/FEMALE, Target Tissue: Type of Lesion: LYMPHOID TISSUE: THYMIC LYMPHOMA, Dose [Carcinogen]: 1 G/KG 2/D FOR 5 D EVERY 4 WK FOR 3 COURSES OF TREATMENT, Promoter: NONE USED): 22/137 (16%), 5/44 (11%), 31%, not calculated
- tumour outcome (control, treated, inhibition, significance) (Carcinogen: TRANS-5-AMINO-3-[2-(5-NITRO-2-FURYL)VINYL]-1,2,4-OXADIAZOLE;SQL8506, 28754-68-9, Carcinogen: TRANS-5-AMINO-3-[2-(5-NITRO-2-FURYL)VINYL]-1,2,4-OXADIAZOLE;SQL8506, 28754-68-9, Dose [Inhibitor]: 75 MG/KG 18 HR BEFORE THE 1ST DOSE OF EACH CARCINOGEN TREATMENT (STUDY DURATION: LIFETIME), Route [Inhibitor]: ORAL, Species: MOUSE, Strain/Sex: CD-1/FEMALE, Target Tissue: Type of Lesion: STOMACH: SQUAMOUS CARCINOMA, Dose [Carcinogen]: 1 G/KG 2/D FOR 5 D EVERY 4 WK FOR 3 COURSES OF TREATMENT, Promoter: NONE USED): 60/137 (44%), 26/44 (59%), -34%, not calculated
